For orientation: melting point means the temperature of the solid-liquid transition.

Where a name gives a salt, the structure may show the parent alone.

On to `O=Cc1cn(Cc2ccc(Cl)cc2)nc1CN1CCC(c2ccccc2)(c2ccccc2)CC1`, for which the melting point is 133 to 134 °C.

`OCc1cn(Cc2ccc(Cl)cc2)nc1CN1CCC(c2ccccc2)(c2ccccc2)CC1` registered a melting point of 104 to 105 °C.

Consider `Clc1ccc(Cn2nncc2CN2CCC(c3ccccc3)(c3ccccc3)CC2)cc1`, for which the melting point is 195 °C.

Compound `Clc1ccc(Cn2cc(CN3CCC(c4ccccc4)(c4ccccc4)CC3)nn2)cc1` displayed a melting point of 148 °C.

`O=C(O)c1c(CN2CCC(c3ccccc3)(c3ccccc3)CC2)ncn1Cc1ccc(Cl)cc1` displayed a melting point of 135 to 136 °C.

For the compound `Clc1cccc(Cn2ccc(CN3CCC(c4ccccc4)(c4ccccc4)CC3)n2)c1`, the melting point is 136 to 137 °C.

`NC(=O)c1c(CN2CCC(c3ccccc3)(c3ccccc3)CC2)ncn1Cc1ccc(Cl)cc1` had a melting point of 227 to 228 °C.

As to `Cc1ccc(Cn2ccc(CN3CCC(c4ccccc4)(c4ccccc4)CC3)n2)cc1C`, the melting point was 139 to 140 °C.

`Fc1ccc(Cn2ccc(CN3CCC(c4ccccc4)(c4ccccc4)CC3)n2)cc1` (as salt: hydrochloride) gave a melting point of 192 to 193 °C.

In turn, `COc1cc(Cl)ccc1Cn1ccc(CN2CCC(c3ccccc3)(c3ccccc3)CC2)n1` (as salt: hydrochloride) gave a melting point of 73 to 74 °C.

In the case of `Oc1cc(Cl)ccc1Cn1ccc(CN2CCC(c3ccccc3)(c3ccccc3)CC2)n1` (as salt: hydrochloride), the melting point was in the range of 260 to 261 °C.

As for `CN(C)C(=O)COc1cc(Cl)ccc1Cn1ccc(CN2CCC(c3ccccc3)(c3ccccc3)CC2)n1` (as salt: hydrochloride), the melting point lay in the range of 181 to 182 °C.

`Clc1ccc(Cn2cnc(CN3CCC(c4ccccc4)(c4ccccc4)CC3)c2)cc1` (as salt: hydrochloride): the melting point fell in the range of 254 to 255 °C.

With `Clc1ccc(Cc2ncc(CN3CCC(c4ccccc4)(c4ccccc4)CC3)[nH]2)cc1` (as salt: hydrochloride), the melting point is 186 to 187 °C.

`Cc1ccc(Cn2ccc(CN3CCC(c4ccccc4)(c4ccccc4)CC3)n2)cc1` (as salt: hydrochloride) yielded a melting point of 147 to 148 °C.

As to `FC(F)(F)c1ccc(Cn2ccc(CN3CCC(c4ccccc4)(c4ccccc4)CC3)n2)cc1` (as salt: hydrochloride), the melting point was in the range of 66 to 67 °C.

In the case of `Clc1ccc(Cn2ccc(CN3CCC(c4ccccc4)(c4ccccc4)CC3)n2)c(Cl)c1` (as salt: hydrochloride), the melting point fell in the range of 101 to 102 °C.

In turn, `Clc1ccc(Cn2ccc(CN3CCC(c4ccccc4)(c4ccccc4)CC3)n2)cc1Cl` (as salt: hydrochloride) yielded a melting point of 191 to 192 °C.

In turn, `Clc1ccc(Cn2ccc(CN3CCC(c4ccccc4)(c4ccccc4)CC3)n2)cc1` (as salt: hydrochloride) yielded a melting point of 137 to 138 °C.

Take `O=C(c1cnc(Cc2ccc(Cl)cc2)[nH]1)N1CCC(c2ccccc2)(c2ccccc2)CC1` [Example 23, [2-(4-Chlorobenzyl)-1H-imidazol-5-yl](4,4-diphenyl-1-piperidinyl)methanone]: the melting point lay within 105 to 106 °C.

The values above are taken from US6566376B1, “Diphenyl-piperidine derivative” (AstraZeneca UK Limited, priority 1999, dated 2003).
